Where two headings read alike, the source gives them in different places.
Tests used:
[1] = biological target: T1, Human soluble guanylate cyclase enzyme (hsGC) (Homo sapiens (Human), UniProt Q02108+Q02153); assay: Purified human sGC enzyme synergy assay in the presence of 1 μM sodium nitroprusside (SNP); format: biochemical; conditions: for sGC Enzyme (fold increase at 10 μM with SNP): 10 μM compound; for sGC Enzyme (fold increase at 30 μM with SNP): 30 μM compound
Procedure: Human soluble guanylate cyclase enzyme (hsGC) obtained from Enzo Inc. (P/N: ALX-201-177) was used to evaluate the activity of test compounds. The assay reactions contained 0.1 M Tris (pH 8.0), 0.5 mg/mL BSA (pH 8.0), 2 mM DTT, 2 mM MgCl2, 300 μM GTP, 1 mM 3-isobutyl-1-methylxanthine (IBMX) and 5 ng human soluble guanylate cyclase enzyme. Test compounds in DMSO were then added (2 μL, 10 or 30 μM final concentration) and incubated (200 μL, 96-well plate format) at 37° C. for 30 minutes. The controls were carried out using 2 μL DMSO. After the 30 minute incubation, the reaction was stopped with the addition of 200 μL of cold methanol. The plate was then centrifuged at 3,200 rpm for 10 minutes at room temperature. Supernatants (200 μL) were collected and transferred to a new 96 well plate for analysis.
An 8 point cGMP (Sigma-Aldrich P/N: G6129) standard curve was prepared in assay buffer ranging from 0.156-20 μM. Samples for the cGMP standard curve were then diluted with an equal volume of methanol resulting in final cGMP concentrations of 0.078-10 μM.
The cGMP standard curve was generated using GraphPad Prism Software.
Calculations: Specific Activity was determined by the amount of cGMP formed (nmoles) per mg of sGC per min. Enzyme “fold-change” was calculated by dividing Specific Activity for test compounds by Specific Activity of DMSO controls.
Enzyme assays were performed as described above, but was done in the presence of 1 μM sodium nitroprusside (SNP).

[2] = biological target: T1, Human soluble guanylate cyclase enzyme (hsGC); assay: Purified human sGC enzyme activity assay; format: biochemical; conditions: for sGC Enzyme (specific activity at 10 μM) / sGC Enzyme (fold increase at 10 μM without SNP): 10 μM compound; for sGC Enzyme (specific activity at 30 μM) / sGC Enzyme (fold increase at 30 μM without SNP) / sGC Enzyme (fold increase at 30 μM): 30 μM compound; for sGC Enzyme (fold increase at 30 μM): without the addition of SNP
Method in brief: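 Purified human sGC (5 ng) incubated 30 min at 37° C with compound at 10 or 30 μM final in pH 8.0 Tris with 300 μM GTP, 2 mM MgCl2, 2 mM DTT and 1 mM IBMX, then stopped with cold methanol. cGMP quantified against a standard curve. Specific activity (nmol cGMP/mg sGC/min) expressed as fold-change over DMSO control.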

[3] = system: Thoracic aortic rings; assay: Alternative thoracic aortic rings assay (Example 19b; resting tension as 100% inhibition); parameters: species or system rat; conditions: Rattus norvegicus, Table 10B; for inhibition at 1 µM: read-out: Percent Relaxation at 1 μM; for inhibition at 3 µM: read-out: Percent Relaxation at 3 μM; for inhibition at 10 µM: read-out: Percent Relaxation at 10 μM; for EC50: read-out: Aortic Ring EC50
Method in brief: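 Aortic rings (~2 mm) from male Sprague-Dawley rats (275-299 g) held at 1.0 g resting tension in Krebs-Henseleit at 37 °C under 95% O2/5% CO2, then precontracted with 100 ng/mL phenylephrine. Compounds in DMSO added cumulatively; relaxation recorded by force transducer and EC50 taken from concentration-response curves.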

[4] = biological target: T2, soluble guanylate cyclase (sGC) (Homo sapiens (Human), UniProt Q02108+Q02153); assay: sGC-HEK-cGMP assay run with SNP incubation (HEK WC assay); format: cell-based; conditions: for HEK WC Assay (fold increase at 30 μM in the presence of 10 μM SNP): compound at 30 μM; for EC50: in the presence of 10 uM SNP
Method in brief: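 HEK293 cells with endogenous sGC were pretreated with 0.5 mM IBMX for 15 min at 37 °C, then exposed to test compound plus sodium nitroprusside for 10 min at 37 °C.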

[5] = biological target: T2, soluble guanylate cyclase (sGC); assay: sGC-HEK-cGMP assay run in the absence of SNP (HEK WC assay); format: cell-based; conditions: compound at 30 μM, absence of SNP
Method in brief: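 HEK293 cells with endogenous sGC, preincubated 15 min at 37° C with 0.5 mM IBMX, then exposed to test compound 10 min at 37° C without SNP. Cells lysed in 0.1 M HCl; cGMP quantified by LC/MS against a standard curve. EC50 from concentration-response curves.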

[6] = read-out: HEK WC Assay (% Emax at 1 μM with 10 uM SNP)
[7] = read-out: HEK WC Assay (% Emax at 10 μM with 10 uM SNP)
[8] = read-out: HEK WC Assay (% Emax at 30 μM with 10 uM SNP)

T2 sequence (Q02153 whole entry): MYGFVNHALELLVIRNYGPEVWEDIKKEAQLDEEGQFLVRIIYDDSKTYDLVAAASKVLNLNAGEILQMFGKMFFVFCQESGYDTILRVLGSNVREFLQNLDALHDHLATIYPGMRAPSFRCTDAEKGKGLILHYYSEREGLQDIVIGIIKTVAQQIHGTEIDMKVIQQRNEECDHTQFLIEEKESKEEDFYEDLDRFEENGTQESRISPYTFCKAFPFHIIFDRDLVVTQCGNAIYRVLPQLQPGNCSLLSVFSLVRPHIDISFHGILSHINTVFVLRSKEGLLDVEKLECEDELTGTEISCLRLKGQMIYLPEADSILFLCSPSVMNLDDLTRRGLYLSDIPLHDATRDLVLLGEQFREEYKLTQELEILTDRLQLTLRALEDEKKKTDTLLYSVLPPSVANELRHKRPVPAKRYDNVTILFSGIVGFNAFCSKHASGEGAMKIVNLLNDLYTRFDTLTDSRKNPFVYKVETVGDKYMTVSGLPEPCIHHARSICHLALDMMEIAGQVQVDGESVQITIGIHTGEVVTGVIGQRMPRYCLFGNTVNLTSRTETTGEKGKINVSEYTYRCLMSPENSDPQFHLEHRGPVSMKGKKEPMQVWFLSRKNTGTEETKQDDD
T2 sequence (Q02108 whole entry): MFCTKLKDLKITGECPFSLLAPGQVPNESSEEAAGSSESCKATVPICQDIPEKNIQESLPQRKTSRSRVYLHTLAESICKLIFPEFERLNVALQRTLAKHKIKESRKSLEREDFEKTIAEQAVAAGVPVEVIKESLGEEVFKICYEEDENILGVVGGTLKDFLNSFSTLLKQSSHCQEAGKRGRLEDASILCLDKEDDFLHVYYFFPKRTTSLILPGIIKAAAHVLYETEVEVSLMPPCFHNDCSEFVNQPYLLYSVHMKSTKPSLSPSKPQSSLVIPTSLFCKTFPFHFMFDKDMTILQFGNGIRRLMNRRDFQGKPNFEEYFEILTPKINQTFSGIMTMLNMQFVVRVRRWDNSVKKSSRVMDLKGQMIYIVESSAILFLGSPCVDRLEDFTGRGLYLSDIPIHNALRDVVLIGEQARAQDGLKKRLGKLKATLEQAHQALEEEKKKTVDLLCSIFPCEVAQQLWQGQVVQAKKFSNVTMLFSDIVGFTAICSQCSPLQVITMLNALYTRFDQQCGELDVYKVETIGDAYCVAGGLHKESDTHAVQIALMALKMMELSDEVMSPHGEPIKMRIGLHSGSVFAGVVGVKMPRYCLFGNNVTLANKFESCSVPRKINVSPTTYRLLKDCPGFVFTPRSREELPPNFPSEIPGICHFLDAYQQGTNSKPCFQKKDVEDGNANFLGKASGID
T1 sequence (Q02153 whole entry): as the sequence (Q02153 whole entry) above
T1 sequence (Q02108 whole entry): as the sequence (Q02108 whole entry) above

Compound	sGC Enzyme (fold increase at 10 μM with SNP) ([1]; with 1 μM SNP)	sGC Enzyme (fold increase at 30 μM with SNP) ([1]; with 1 μM SNP)	sGC Enzyme (specific activity at 10 μM) [2]	sGC Enzyme (fold increase at 10 μM without SNP) [2]	sGC Enzyme (specific activity at 30 μM) [2]	sGC Enzyme (fold increase at 30 μM without SNP) [2]	sGC Enzyme (fold increase at 30 μM with SNP) ([1]; with the addition of SNP)	sGC Enzyme (fold increase at 30 μM) [2]	EC50 [3]	HEK WC Assay (fold increase at 30 μM in the presence of 10 μM SNP) [4]	EC50 [4]	Emax [4, 6]	Emax [4, 7]	Emax [4, 8]	HEK WC Assay (fold increase at 30 μM in the absence of SNP) [5]	inhibition at 1 µM [3]	inhibition at 3 µM [3]	inhibition at 10 µM [3]
Fc1ccccc1Cn1nc(-c2ccccn2)cc1-c1csc2ccccc12 [Compound I-18]	A (A = no increase to <2 fold increase)	A (A = no increase to <2 fold increase)	C (C = 100 to <200)	A (A = no increase to <2 fold increase)	C (C = 100 to <200)	A (A = no increase to <2 fold increase)	–	–	–	–	–	–	–	–	–	–	–	–
Cc1ccccc1-c1cc(-c2ccccn2)nn1Cc1ccccc1F [Compound I-24]	A (A = no increase to <2 fold increase)	A (A = no increase to <2 fold increase)	C (C = 100 to <200)	A (A = no increase to <2 fold increase)	C (C = 100 to <200)	A (A = no increase to <2 fold increase)	–	–	–	–	–	–	–	–	–	–	–	–
COc1ccccc1-c1cc(-c2ccccn2)nn1Cc1ccccc1F [Compound I-36]	A (A = no increase to <2 fold increase)	A (A = no increase to <2 fold increase)	C (C = 100 to <200)	A (A = no increase to <2 fold increase)	C (C = 100 to <200)	A (A = no increase to <2 fold increase)	–	–	–	–	–	–	–	–	–	–	–	–
COc1ccccc1-c1cc(-c2ncccn2)nn1Cc1ccccc1F [Compound I-37]	A (A = no increase to <2 fold increase)	A (A = no increase to <2 fold increase)	C (C = 100 to <200)	A (A = no increase to <2 fold increase)	C (C = 100 to <200)	A (A = no increase to <2 fold increase)	–	–	–	–	–	–	–	–	–	–	–	–
COc1cccc(-c2cc(-c3ccccn3)nn2Cc2ccccc2F)c1 [Compound I-38]	A (A = no increase to <2 fold increase)	A (A = no increase to <2 fold increase)	C (C = 100 to <200)	A (A = no increase to <2 fold increase)	C (C = 100 to <200)	A (A = no increase to <2 fold increase)	–	–	–	–	–	–	–	–	–	–	–	–
Nc1nc(-c2cc(-c3ccon3)n(Cc3ccccc3F)n2)ncc1-c1ccsc1 [Compound I-121]	–	–	–	–	–	–	D (D = 10 to <30 fold increase)	C (C = 5 to <10 fold increase)	–	–	–	–	–	–	–	–	–	–
Nc1nc(-c2cc(-c3ccon3)n(Cc3ccccc3F)n2)ncc1N1CCCC1 [Compound I-129]	–	–	–	–	–	–	D (D = 10 to <30 fold increase)	B (B = 2 to <5 fold increase)	–	–	–	–	–	–	–	–	–	–
N#Cc1cnc(-c2cc(-c3ccon3)n(Cc3ccccc3F)n2)nc1N [Compound I-130]	–	–	–	–	–	–	D (D = 10 to <30 fold increase)	C (C = 5 to <10 fold increase)	–	–	–	–	–	–	–	–	–	–
CC1(C(=O)Nc2cnc(-c3cc(-c4ccon4)n(Cc4ccccc4F)n3)nc2N)CC1 [Compound I-206]	–	–	–	–	–	–	–	–	< 2 µM	F (F = 20 to <30 fold increase)	< 20 µM	100 to 120%	100 to 120%	100 to 120%	E (E = 10 to <20 fold increase)	20 to 40%	60 to 80%	80 to 100%
Oc1nc(-c2cc(-c3ccon3)n(Cc3ccccc3F)n2)ncc1C(F)(F)F [Compound I-216]	–	–	–	–	–	–	–	–	< 2 µM	E (E = 10 to <20 fold increase)	< 20 µM	20 to 40%	40 to 60%	40 to 60%	C (C = 2 to <5 fold increase)	40 to 60%	80 to 100%	100 to 120%

The next lines start with results.

sGC Enzyme (fold increase at 10 μM with SNP) ([1]; with 1 μM SNP)	sGC Enzyme (fold increase at 30 μM with SNP) ([1]; with 1 μM SNP)	sGC Enzyme (specific activity at 10 μM) [2]	sGC Enzyme (fold increase at 10 μM without SNP) [2]	sGC Enzyme (specific activity at 30 μM) [2]	sGC Enzyme (fold increase at 30 μM without SNP) [2]	sGC Enzyme (fold increase at 30 μM with SNP) ([1]; with the addition of SNP)	sGC Enzyme (fold increase at 30 μM) [2]	EC50 [3]	HEK WC Assay (fold increase at 30 μM in the presence of 10 μM SNP) [4]	EC50 [4]	Emax [4, 6]	Emax [4, 7]	Emax [4, 8]	HEK WC Assay (fold increase at 30 μM in the absence of SNP) [5]	Compound	inhibition at 1 µM [3]	inhibition at 3 µM [3]	inhibition at 10 µM [3]
–	–	–	–	–	–	–	–	< 2 µM	F (F = 20 to <30 fold increase)	< 20 µM	60 to 80%	100 to 120%	–	D (D = 5 to <10 fold increase)	O=S(=O)(c1ccccc1)c1cnc(-c2cc(-c3ccon3)n(Cc3ccccc3F)n2)nc1O [Compound I-217]	40 to 60%	60 to 80%	80 to 100%
–	–	–	–	–	–	–	–	< 2 µM	F (F = 20 to <30 fold increase)	< 20 µM	80 to 100%	100 to 120%	100 to 120%	E (E = 10 to <20 fold increase)	Nc1nc(-c2cc(-c3ccon3)n(Cc3ccccc3F)n2)ncc1NC(=O)C1(C(F)(F)F)CC1 [Compound I-237]	60 to 80%	80 to 100%	100 to 120%
–	–	–	–	–	–	–	–	< 2 µM	E (E = 10 to <20 fold increase)	< 20 µM	80 to 100%	100 to 120%	100 to 120%	E (E = 10 to <20 fold increase)	N#CC1(C(=O)Nc2cnc(-c3cc(-c4ccon4)n(Cc4ccccc4F)n3)nc2N)CC1 [Compound I-238]	80 to 100%	100 to 120%	100 to 120%
–	–	–	–	–	–	–	–	< 2 µM	E (E = 10 to <20 fold increase)	< 20 µM	60 to 80%	80 to 100%	80 to 100%	D (D = 5 to <10 fold increase)	CC(C)(C)C(=O)Nc1cnc(-c2cc(-c3ccon3)n(Cc3ccccc3F)n2)nc1N [Compound I-277]	60 to 80%	80 to 100%	100 to 120%
–	–	–	–	–	–	–	–	< 2 µM	D (D = 5 to <10 fold increase)	40 to 60 µM	–	20 to 40%	20 to 40%	B (B = 1 to <2 fold increase)	Cc1csc(-c2cc(-c3ncccn3)nn2Cc2ccccc2F)n1 [Compound I-294]	20 to 40%	60 to 80%	100 to 120%
–	–	–	–	–	–	–	–	–	E (E = 10 to <20 fold increase)	< 20 µM	–	20 to 40%	60 to 80%	C (C = 2 to <5 fold increase)	Nc1ccnc(-c2cc(-c3cnco3)n(Cc3ccccc3F)n2)n1 [Compound I-296]	20 to 40%	40 to 60%	80 to 100%
–	–	–	–	–	–	–	–	< 2 µM	E (E = 10 to <20 fold increase)	20 to 40 µM	–	20 to 40%	40 to 60%	C (C = 2 to <5 fold increase)	Fc1ccccc1Cn1nc(-c2ccccn2)cc1-c1ncon1 [Compound I-304]	20 to 40%	60 to 80%	80 to 100%

Reference: patent US10189809B2, “SGC stimulators” (Ironwood Pharmaceuticals, Inc., priority 2010, dated 2019)
